The test addresses human kinase Mps-1 (Homo sapiens (Human), UniProt P33981). Nature of the test: Mps-1 kinase assay (TR-FRET). The format is biochemical. The conditions noted are these: N-terminally GST-tagged human full length recombinant Mps-1; 10 μM ATP; 1 μM biotinylated peptide substrate; read-out: Mps1 IC50. On the procedure:
The human kinase Mps-1 phosphorylates a biotinylated substrate peptide. Detection of the phosphorylated product is achieved by time-resolved fluorescence resonance energy transfer (TR-FRET) from Europium-labelled anti-phospho-Serine/Threonine antibody as donor to streptavidin labelled with cross-linked allophycocyanin (SA-XLent) as acceptor. Compounds are tested for their inhibition of the kinase activity.
N-terminally GST-tagged human full length recombinant Mps-1 kinase (purchased from Invitrogen, Karslruhe, Germany, cat. no PV4071) was used. As substrate for the kinase reaction a biotinylated peptide of the amino-acid sequence […] (C-terminus in amide form, purchased from Biosynthan GmbH, Berlin) was used.
The concentration of Mps-1 in the assay was adjusted to the activity of the enzyme lot and was chosen appropriate to have the assay in the linear range, typical enzyme concentrations were in the range of about 1 nM (final conc. in the 5 μl assay volume).
The resulting mixture was incubated 1 h at 22° C. to allow the binding of the phosphorylated peptide to the anti-phospho(Ser/Thr)-Europium-antibody. Subsequently the amount of phosphorylated substrate was evaluated by measurement of the resonance energy transfer from the Europium-labelled anti-phospho(Ser/Thr) antibody to the Streptavidin-XLent.

SMILES strings stand for the structures.

Sequence of human kinase Mps-1 (P33981 whole entry): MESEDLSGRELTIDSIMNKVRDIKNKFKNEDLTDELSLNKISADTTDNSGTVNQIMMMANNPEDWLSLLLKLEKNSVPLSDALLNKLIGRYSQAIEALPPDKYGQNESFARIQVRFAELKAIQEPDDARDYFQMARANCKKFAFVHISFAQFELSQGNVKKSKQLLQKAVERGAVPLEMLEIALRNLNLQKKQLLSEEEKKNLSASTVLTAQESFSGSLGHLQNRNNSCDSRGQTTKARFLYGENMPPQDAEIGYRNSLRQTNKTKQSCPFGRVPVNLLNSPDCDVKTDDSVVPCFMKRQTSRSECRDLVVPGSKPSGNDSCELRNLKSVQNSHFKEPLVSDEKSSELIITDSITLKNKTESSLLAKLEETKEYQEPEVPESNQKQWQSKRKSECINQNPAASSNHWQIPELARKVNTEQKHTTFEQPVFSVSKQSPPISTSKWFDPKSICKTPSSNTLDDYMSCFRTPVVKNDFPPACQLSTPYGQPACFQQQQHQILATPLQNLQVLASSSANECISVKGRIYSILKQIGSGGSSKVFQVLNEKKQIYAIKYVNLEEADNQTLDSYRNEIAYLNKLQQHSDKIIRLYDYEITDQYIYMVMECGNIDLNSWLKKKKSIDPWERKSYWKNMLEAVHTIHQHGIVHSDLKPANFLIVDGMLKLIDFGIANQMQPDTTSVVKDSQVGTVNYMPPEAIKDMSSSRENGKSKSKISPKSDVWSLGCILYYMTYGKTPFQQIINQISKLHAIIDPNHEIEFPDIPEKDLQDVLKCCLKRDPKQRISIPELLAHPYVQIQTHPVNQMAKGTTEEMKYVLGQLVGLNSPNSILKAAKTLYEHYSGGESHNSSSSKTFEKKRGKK

Take `COc1ccc(C(C)(O)c2cc(NCCC(F)(F)F)c3ncn(-c4ccc(C(=O)NC5CC5)c(C)c4)c3c2)cc1F` (racemic) [Example 103A, N-cyclopropyl-4-{6-[(1RS)-1-(3-fluoro-4-methoxyphenyl)-1-hydroxyethyl]-4-[(3,3,3-trifluoropropyl)amino]-1H-benzimidazol-1-yl}-2-methylbenzamide]: the IC50 came out at 2.7 nM. In the case of `COc1ccc(C(C)c2cc(NCCC(F)(F)F)c3ncn(-c4ccc(C(=O)NC5CC5)c(C)c4)c3c2)cc1F` (racemic) [Example 105, N-cyclopropyl-4-{6-[(1RS)-1-(3-fluoro-4-methoxyphenyl)ethyl]-4-[(3,3,3-trifluoropropyl)amino]-1H-benzimidazol-1-yl}-2-methylbenzamide], the half-maximal inhibitory concentration (IC50) worked out at 2.9 nM. With `Cc1cc(-n2cnc3c(NCCC(F)(F)F)cc(-c4ccncc4)cc32)ccc1C(=O)NC1CC1` [Example 2, N-cyclopropyl-2-methyl-4-{6-(pyridin-4-yl)-4-[(3,3,3-trifluoropropyl)amino]-1H-benzimidazol-1-yl}benzamide] the figure was 0.2 nM. With `Cc1ccc(F)cc1Nc1cc(NCCC(F)(F)F)c2ncn(-c3ccc(C(=O)NC4CC4)c(C)c3)c2c1` [Example 3, N-Cyclopropyl-4-{6-[(5-fluoro-2-methylphenyl)amino]-4-[(3,3,3-trifluoropropyl)amino]-1H-benzimidazol-1-yl}-2-methylbenzamide] the figure was 1.5 nM; with `Cc1cc(-n2cnc3c(NCCC(F)(F)F)cc(Oc4cccc(F)c4)cc32)ccc1C(=O)NC1CC1` [Example 4, N-cyclopropyl-4-{6-(3-fluorophenoxy)-4-[(3,3,3-trifluoropropyl)amino]-1H-benzimidazol-1-yl}-2-methylbenzamide], 0.7 nM.

As to `Cc1cc(-n2cnc3c(NCCC(F)(F)F)cc(Nc4cccc(F)c4F)cc32)ccc1C(=O)NC1CC1` [Example 5, N-cyclopropyl-4-{6-[(2,3-difluorophenyl)amino]-4-[(3,3,3-trifluoropropyl)amino]-1H-benzimidazol-1-yl}-2-methylbenzamide], the concentration for half-maximal inhibition (IC50) stood at 2.3 nM.

On to `CC(C)CNc1cc(Br)cc2c1ncn2-c1ccc(C(=O)NC2CC2)cc1` [Example 6, 4-{6-bromo-4-[(2-methylpropyl)amino]-1H-benzimidazol-1-yl}-N-cyclopropylbenzamide], for which the IC50 was 16.6 nM.

For the molecule `CC(C)CNc1cc(-c2ccc(F)cc2)cc2c1ncn2-c1ccc(C(=O)NC2CC2)cc1` [Example 7, N-cyclopropyl-4-{6-(4-fluorophenyl)-4-[(2-methylpropyl)amino]-1H-benzimidazol-1-yl}benzamide], the IC50 was determined as 1.9 nM. With `Cc1cc(-n2cnc3c(NCC4CCOCC4)cc(Oc4cccc(F)c4)cc32)ccc1C(=O)NC1CC1` [Example 9, N-cyclopropyl-4-{6-(3-fluorophenoxy)-4-[(tetrahydro-2H-pyran-4-ylmethyl)amino]-1H-benzimidazol-1-yl}-2-methylbenzamide] the figure was 0.4 nM; with `CNC(=O)c1ccc(-n2cnc3c(NCCC(F)(F)F)cc(Oc4cccc(F)c4)cc32)cc1C` [Example 10, 4-{6-(3-Fluorophenoxy)-4-[(3,3,3-trifluoropropyl)amino]-1H-benzimidazol-1-yl}-N,2-dimethylbenzamide], 4.7 nM; with `CCNC(=O)c1ccc(-n2cnc3c(NCCC(F)(F)F)cc(Oc4cccc(F)c4)cc32)cc1C` [Example 11, N-ethyl-4-{6-(3-fluorophenoxy)-4-[(3,3,3-trifluoropropyl)amino]-1H-benzimidazol-1-yl}-2-methylbenzamide], 6.6 nM. For `Cc1cc(-n2cnc3c(NCCC(F)(F)F)cc(Oc4cccc(F)c4)cc32)ccc1C(=O)NC1(C)CC1` [Example 12, 4-{6-(3-Fluorophenoxy)-4-[(3,3,3-trifluoropropyl)amino]-1H-benzimidazol-1-yl}-2-methyl-N-(1-methylcyclopropyl)benzamide] the value was 15.3 nM; for `Cc1cc(-n2cnc3c(NCCC(F)(F)F)cc(Oc4cccc(F)c4)cc32)ccc1C(=O)NC1(C#N)CC1` [Example 13, N-(1-cyanocyclopropyl)-4-{6-(3-fluorophenoxy)-4-[(3,3,3-trifluoropropyl)amino]-1H-benzimidazol-1-yl}-2-methylbenzamide], 48.7 nM. For `Cc1cc(-n2cnc3c(NCCC(F)(F)F)cc(Oc4cccc(F)c4F)cc32)ccc1C(=O)NC1CC1` [Example 14, N-cyclopropyl-4-{6-(2,3-difluorophenoxy)-4-[(3,3,3-trifluoropropyl)amino]-1H-benzimidazol-1-yl}-2-methylbenzamide] the value was 0.5 nM. As for `Cc1cc(F)cc(Oc2cc(NCC3CCOCC3)c3ncn(-c4ccc(C(=O)NC5CC5)c(C)c4)c3c2)c1` [Example 15, N-cyclopropyl-4-{6-(3-fluoro-5-methylphenoxy)-4-[(tetrahydro-2H-pyran-4-ylmethyl)amino]-1H-benzimidazol-1-yl}-2-methylbenzamide], the half-maximal inhibitory concentration (IC50) is 0.6 nM.

On to `Cc1ccc(F)cc1Oc1cc(NCC2CCOCC2)c2ncn(-c3ccc(C(=O)NC4CC4)c(C)c3)c2c1` [Example 16, N-cyclopropyl-4-{6-(5-fluoro-2-methylphenoxy)-4-[(tetrahydro-2H-pyran-4-ylmethyl)amino]-1H-benzimidazol-1-yl}-2-methylbenzamide], for which the half-inhibitory concentration (IC50) came to 0.6 nM. For `Cc1cc(-n2cnc3c(NCC4CCOCC4)cc(Oc4ccc(F)c(F)c4)cc32)ccc1C(=O)NC1CC1` [Example 17, N-cyclopropyl-4-{6-(3,4-difluorophenoxy)-4-[(tetrahydro-2H-pyran-4-ylmethyl)amino]-1H-benzimidazol-1-yl}-2-methylbenzamide] the value was 1.1 nM; for `Cc1cc(-n2cnc3c(NCCC(F)(F)F)cc(Oc4ccc(Cl)cc4)cc32)ccc1C(=O)NC1CC1` [Example 18, 4-{6-(4-Chlorophenoxy)-4-[(3,3,3-trifluoropropyl)amino]-1H-benzimidazol-1-yl}-N-cyclopropyl-2-methylbenzamide], 2.4 nM; for `Cc1ccc(F)cc1Nc1cc(NCC2CCOCC2)c2ncn(-c3ccc(C(=O)NC4CC4)c(C)c3)c2c1` [Example 19, N-cyclopropyl-4-{6-[(5-fluoro-2-methylphenyl)amino]-4-[(tetrahydro-2H-pyran-4-ylmethyl)amino]-1H-benzimidazol-1-yl}-2-methylbenzamide], 1.2 nM. With `Cc1cc(-n2cnc3c(NCC4CCOCC4)cc(-c4ccccc4CO)cc32)ccc1C(=O)NC1CC1` [Example 20, N-cyclopropyl-4-{6-[2-(hydroxymethyl)phenyl]-4-[(tetrahydro-2H-pyran-4-ylmethyl)amino]-1H-benzimidazol-1-yl}-2-methylbenzamide] the figure was 1.5 nM.

With `Cc1cc(-n2cnc3c(NCCC(F)(F)F)cc(-c4ccccc4CO)cc32)ccc1C(=O)NC1CC1` [Example 21, N-cyclopropyl-4-{6-[2-(hydroxymethyl)phenyl]-4-[(3,3,3-trifluoropropyl)amino]-1H-benzimidazol-1-yl}-2-methylbenzamide], the IC50 is 1.8 nM. With `Cc1cc(-n2cnc3c(NCC4CCOCC4)cc(Oc4ccc(Cl)c(F)c4)cc32)ccc1C(=O)NC1CC1` [Example 22, 4-{6-(4-Chloro-3-fluorophenoxy)-4-[(tetrahydro-2H-pyran-4-ylmethyl)amino]-1H-benzimidazol-1-yl}-N-cyclopropyl-2-methylbenzamide] the figure was 2.7 nM; with `Cc1cc(-n2cnc3c(NCC4CCOCC4)cc(Oc4ccc(Cl)cc4)cc32)ccc1C(=O)NC1CC1` [Example 23, 4-{6-(4-Chlorophenoxy)-4-[(tetrahydro-2H-pyran-4-ylmethyl)amino]-1H-benzimidazol-1-yl}-N-cyclopropyl-2-methylbenzamide], 2.2 nM.

For the molecule `Cc1cc(-n2cnc3c(NCC4CCOCC4)cc(Oc4cccc(F)c4F)cc32)ccc1C(=O)NC1CC1` [Example 25, N-cyclopropyl-4-{6-(2,3-difluorophenoxy)-4-[(tetrahydro-2H-pyran-4-ylmethyl)amino]-1H-benzimidazol-1-yl}-2-methylbenzamide], the IC50 was determined as 0.2 nM.

In the case of `Cc1cc(F)cc(Oc2cc(NCCC(F)(F)F)c3ncn(-c4ccc(C(=O)NC5CC5)c(C)c4)c3c2)c1` [Example 26, N-cyclopropyl-4-{6-(3-fluoro-5-methylphenoxy)-4-[(3,3,3-trifluoropropyl)amino]-1H-benzimidazol-1-yl}-2-methylbenzamide], the IC50 was found to be 1.8 nM. With `Cc1cc(-n2cnc3c(NCCC(F)(F)F)cc(Oc4ccc(F)c(F)c4)cc32)ccc1C(=O)NC1CC1` [Example 27, N-cyclopropyl-4-{6-(3,4-difluorophenoxy)-4-[(3,3,3-trifluoropropyl)amino]-1H-benzimidazol-1-yl}-2-methylbenzamide] the figure was 1.4 nM; with `Cc1cc(-n2cnc3c(NCCC(F)(F)F)cc(Oc4ccc(Cl)c(F)c4)cc32)ccc1C(=O)NC1CC1` [Example 28, 4-{6-(4-Chloro-3-fluorophenoxy)-4-[(3,3,3-trifluoropropyl)amino]-1H-benzimidazol-1-yl}-N-cyclopropyl-2-methylbenzamide], 3.1 nM.

For `COc1ccc(Oc2cc(NCCC(F)(F)F)c3ncn(-c4ccc(C(=O)NC5CC5)c(C)c4)c3c2)c(F)c1` [Example 29, N-cyclopropyl-4-{6-(2-fluoro-4-methoxyphenoxy)-4-[(3,3,3-trifluoropropyl)amino]-1H-benzimidazol-1-yl}-2-methylbenzamide], the IC50 stood at 0.9 nM.

For the origin of these results see patent US9388140B2, “Substituted benzimidazoles” (priority 2011, dated 2016).
